Experimental data: patent US10941157B2, “Pesticidal compositions and uses thereof” (Gilead Apollo, LLC, priority 2015, dated 2021)
≈ marks a conversion by molar mass, not a printed value. Like-named read-outs stand apart in the source and are kept apart here.

Tests used:
Format in all cases: cell-based
[1] = tested on: Botrtyis cinerea (Bc); test: In vitro pathogen growth inhibition assay, Bc; settings: 48 h
Description: (§1) A growth inhibition assay was conducted to determine the ability of compounds to control the growth of fungal pathogens, such as Botrtyis cinerea (Bc), Collectotrichum graminicola (Cg), Diplodia maydis (Dm), Fusarium moniliforme (Fm), Fusarium virguliforme (Fv), Phytophthora capsici (Pc), Rhizoctonia solani (Rs), and Septoria tritici (St). The compounds listed in Table 1 were each dissolved in DMSO at 2.5 mg/ml to produce compound stock solutions (“stocks”). […] Negative controls on each plate included 2% DMSO, water, and a blank (media+2% DMSO). Fungal spores were isolated from previously sub-cultured plates of Botrtyis cinerea (Bc), Collectotrichum graminicola (Cg), Diplodia maydis (Dm), Fusarium moniliforme (Fm), Fusarium virguliforme (Fv), Phytophthora capsici (Pc), and Septoria tritici (St). The isolated spores were diluted to individual concentrations with a 17% V8 liquid media. For Rhizoctonia solani (Rs), 1.5 mm mycelial plugs were used in place of spores and ¼ Potato Dextrose Broth (PDB) was used for dilution. The spore concentrations and plug sizes were based on growth curves generated at 48 hours for each pathogen. In a second 96-well plate, the spores or mycelial plugs, media, diluted compound solutions, and controls were combined. Once the compound was added, a true final concentration of compound in each well was measured by an OD600 reading, which adjusted for any compound precipitation that might have occurred in the well. Plate readings were repeated at both 24 and 48 hours. The blank negative control was used as a background subtraction. Additional visual ratings were performed at both 24 and 48 hours for checking on precipitation and confirming efficacy. […] Both tables list the concentration of each compound that was sufficient to ≥90% inhibition of growth for each of the fungal pathogens listed above. In addition, some of compounds were tested in a yeast growth inhibition assay for Saccharomyces cerevisiae (Sc). Table 2 lists the concentration of the tested compound that was sufficient to ≥75% inhibition of Saccharomyces cerevisiae (Sc).

[2] = tested on: Collectotrichum graminicola (Cg); test: In vitro pathogen growth inhibition assay, Cg; settings: 48 h
Description: as §1

[3] = tested on: Diplodia maydis (Dm); test: In vitro pathogen growth inhibition assay, Dm; settings: Stenocarpella maydis, 48 h
Description: as §1

[4] = tested on: Fusarium moniliforme (Fm); test: In vitro pathogen growth inhibition assay, Fm; settings: Fusarium verticillioides
Description: as §1

[5] = tested on: Fusarium virguliforme (Fv); test: In vitro pathogen growth inhibition assay, Fv
Description: as §1

[6] = tested on: Phytophthora capsici (Pc); test: In vitro pathogen growth inhibition assay, Pc; settings: 48 h
Description: as §1

[7] = tested on: Rhizoctonia solani (Rs); test: In vitro pathogen growth inhibition assay, Rs (mycelial plugs); settings: Rhizoctonia solani, 48 h
Description: as §1

[8] = tested on: Septoria tritici (St); test: In vitro pathogen growth inhibition assay, St; settings: Zymoseptoria tritici, 48 h
Description: as §1

[9] = ≥90% inhibition, 48 hours vs 2% DMSO control, read-out: Compound Concentration (ppm) sufficient for ≥90% inhibition of growth, Bc
[10] = ≥90% inhibition, 48 hours vs 2% DMSO control, read-out: Compound Concentration (ppm) sufficient for ≥90% inhibition of growth, Cg
[11] = ≥90% inhibition, 48 hours vs 2% DMSO control, read-out: Compound Concentration (ppm) sufficient for ≥90% inhibition of growth, Dm
[12] = ≥90% inhibition, 48 hours vs 2% DMSO control, read-out: Compound Concentration (ppm) sufficient for ≥90% inhibition of growth, Fm
[13] = ≥90% inhibition, 48 hours vs 2% DMSO control, read-out: Compound Concentration (ppm) sufficient for ≥90% inhibition of growth, Fv
[14] = ≥90% inhibition, 48 hours vs 2% DMSO control, read-out: Compound Concentration (ppm) sufficient for ≥90% inhibition of growth, Pc
[15] = ≥90% inhibition, mycelial plugs, 48 hours vs 2% DMSO control, read-out: Compound Concentration (ppm) sufficient for ≥90% inhibition of growth, Rs
[16] = ≥90% inhibition, 48 hours vs 2% DMSO control, read-out: Compound Concentration (ppm) sufficient for ≥90% inhibition of growth, St
[17] = ≥90% growth inhibition, 48 hours, vs 2% DMSO control, read-out: Compound Concentration (ppm) sufficient for ≥90% inhibition of Bc
[18] = ≥90% growth inhibition, 48 hours, vs 2% DMSO control, read-out: Compound Concentration (ppm) sufficient for ≥90% inhibition of Cg
[19] = ≥90% growth inhibition, 48 hours, vs 2% DMSO control, read-out: Compound Concentration (ppm) sufficient for ≥90% inhibition of Dm
[20] = ≥90% growth inhibition, 48 hours, vs 2% DMSO control, read-out: Compound Concentration (ppm) sufficient for ≥90% inhibition of Fm
[21] = ≥90% growth inhibition, 48 hours, vs 2% DMSO control, read-out: Compound Concentration (ppm) sufficient for ≥90% inhibition of Fv
[22] = ≥90% growth inhibition, 48 hours, vs 2% DMSO control, read-out: Compound Concentration (ppm) sufficient for ≥90% inhibition of Pc
[23] = ≥90% growth inhibition, mycelial plugs, 48 hours, vs 2% DMSO control, read-out: Compound Concentration (ppm) sufficient for ≥90% inhibition of Rs
[24] = ≥90% growth inhibition, 48 hours, vs 2% DMSO control, read-out: Compound Concentration (ppm) sufficient for ≥90% inhibition of St

Row | SMILES | IC90 [1, 9] [µg/mL] | IC90 [2, 10] [µg/mL] | IC90 [3, 11] [µg/mL] | IC90 [4, 12] [µg/mL] | IC90 [5, 13] [µg/mL] | IC90 [6, 14] [µg/mL] | IC90 [7, 15] [µg/mL] | IC90 [8, 16] [µg/mL] | also measured
1 | COc1ccc(F)cc1[C@H](Cn1c(=O)n(C(C)(C)C(N)=O)c(=O)c2c(C)c(-n3cccn3)sc21)O[C@H]1CC[C@@H](O)CC1 [Compound I-150] | 2 (≈ 3.34 µM) | 50 (≈ 83.4 µM) | ≥ 10 | 2 (≈ 3.34 µM) | 10 (≈ 16.7 µM) | > 50 | 10 (≈ 16.7 µM) | > 50 | 
2 | Cc1c(-n2nccn2)sc2c1c(=O)n(C(C)(C)C(=O)NC(C)C)c(=O)n2C[C@H](OCCC#N)c1cc(F)ccc1O [Compound I-282] |  |  |  |  |  |  |  |  | IC90 [1, 17]: 2 µg/mL (≈ 3.43 µM); IC90 [2, 18]: 2 µg/mL (≈ 3.43 µM); IC90 [3, 19]: ≥ 10 µg/mL; IC90 [4, 20]: 0.4 µg/mL (≈ 0.685 µM); IC90 [5, 21]: 2 µg/mL (≈ 3.43 µM); IC90 [6, 22]: 10 µg/mL (≈ 17.1 µM); IC90 [7, 23]: 0.4 µg/mL (≈ 0.685 µM); IC90 [8, 24]: > 50 µg/mL
3 | COc1ccc(F)cc1[C@H](Cn1c(=O)n(C(C)(C)C(=O)NC(C)C)c(=O)c2c(C)c(-n3cccn3)sc21)OC[C@H](C)O [Compound I-136] | 2 (≈ 3.32 µM) | 10 (≈ 16.6 µM) | ≥ 10 | 0.4 (≈ 0.665 µM) | 2 (≈ 3.32 µM) | > 50 | ≥ 2 | > 50 | 
4 | COc1ccc(F)cc1[C@H](Cn1c(=O)n(C(C)(C)C(=O)N2CCCCC2)c(=O)c2c(C)c(-n3nccn3)sc21)OCC(C)C [Compound I-027] | 0.4 (≈ 0.638 µM) | 0.4 (≈ 0.638 µM) | 0.4 (≈ 0.638 µM) | 0.08 (≈ 0.128 µM) | 2 (≈ 3.19 µM) | > 50 | 0.4 (≈ 0.638 µM) | > 10 | 
5 | COc1ccccc1[C@H](Cn1c(=O)n(C(C)(C)C(=O)N2CCCC2)c(=O)c2c(C)c(-n3cccn3)sc21)OC(C)C [Compound I-046] | 2 (≈ 3.45 µM) | 2 (≈ 3.45 µM) | 2 (≈ 3.45 µM) | 0.08 (≈ 0.138 µM) | 0.4 (≈ 0.69 µM) | > 50 | 0.4 (≈ 0.69 µM) | ≥ 50 | 
6 | COc1ccc(F)cc1[C@H](Cn1c(=O)n(C(C)(C)C(=O)N2CCCC2)c(=O)c2c(C)c(-n3cccn3)sc21)OCCC#N [Compound I-194] |  |  |  |  |  |  |  |  | IC90 [1, 17]: 10 µg/mL (≈ 16.4 µM); IC90 [2, 18]: 50 µg/mL (≈ 82.1 µM); IC90 [3, 19]: 50 µg/mL (≈ 82.1 µM); IC90 [4, 20]: 2 µg/mL (≈ 3.29 µM); IC90 [5, 21]: ≥ 10 µg/mL; IC90 [6, 22]: > 50 µg/mL; IC90 [7, 23]: 10 µg/mL (≈ 16.4 µM); IC90 [8, 24]: > 50 µg/mL
7 | COCCCO[C@@H](Cn1c(=O)n([C@@H](C)C(=O)NC(C)C)c(=O)c2c(C)c(-n3nccn3)sc21)c1cc(F)ccc1OC [Compound I-093] | 0.4 (≈ 0.664 µM) | 10 (≈ 16.6 µM) | 2 (≈ 3.32 µM) | 0.08 (≈ 0.133 µM) | 10 (≈ 16.6 µM) | > 50 | 2 (≈ 3.32 µM) | > 50 | 
8 | COc1ccc(F)cc1[C@H](Cn1c(=O)n(C(C)(C)C(=O)NC(C)C)c(=O)c2c(C)c(-n3nccn3)sc21)OC(=O)CO [Compound I-309] |  |  |  |  |  |  |  |  | IC90 ([1]; concentration sufficient to ≥90% inhibition of growth, 48 hours vs 2% DMSO control, read-out: Compound Concentration (ppm) for ≥90% inhibition, Bc): 50 µg/mL (≈ 83 µM); IC90 ([2]; concentration sufficient to ≥90% inhibition of growth, 48 hours vs 2% DMSO control, read-out: Compound Concentration (ppm) for ≥90% inhibition, Cg): > 50 µg/mL; IC90 ([3]; concentration sufficient to ≥90% inhibition of growth, 48 hours vs 2% DMSO control, read-out: Compound Concentration (ppm) for ≥90% inhibition, Dm): > 50 µg/mL; IC90 ([4]; concentration sufficient to ≥90% inhibition of growth, 48 hours vs 2% DMSO control, read-out: Compound Concentration (ppm) for ≥90% inhibition, Fm): 10 µg/mL (≈ 16.6 µM); IC90 ([5]; concentration sufficient to ≥90% inhibition of growth, 48 hours vs 2% DMSO control, read-out: Compound Concentration (ppm) for ≥90% inhibition, Fv): 10 µg/mL (≈ 16.6 µM); IC90 ([6]; concentration sufficient to ≥90% inhibition of growth, 48 hours vs 2% DMSO control, read-out: Compound Concentration (ppm) for ≥90% inhibition, Pc): > 50 µg/mL; IC90 ([7]; concentration sufficient to ≥90% inhibition of growth, 48 hours vs 2% DMSO control, read-out: Compound Concentration (ppm) for ≥90% inhibition, Rs): > 50 µg/mL; IC90 ([8]; concentration sufficient to ≥90% inhibition of growth, 48 hours vs 2% DMSO control, read-out: Compound Concentration (ppm) for ≥90% inhibition, St): > 50 µg/mL
